Laboratory results taken from patent publication US20240417410A1, “TRICYCLIC COMPOUNDS FOR THE TREATMENT OF CANCER” (Hoffmann-La Roche Inc., priority 2023, published 2024).
Read-outs that look alike come from different tables or passages of the source.

Legend:
Experiment in all cases: Cell proliferation, CTG 3D, 7 d
Type in all cases: cell-based
SW1271 = settings: Homo sapiens
In short: (§1)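 Cells were seeded in ultra-low-adhesion round-bottom plates and grown as spheroids at 37° C, 5% CO2, then treated the next day with compound across 9 doses (3-fold dilution, 0.2% DMSO) for 7 days. Viability was read by CellTiter-Glo 3D luminescence after 30 min shaking; relative IC50 came from curve fits.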

NCI-H929 = settings: Homo sapiens
In short: as §1

MKN-1 = settings: Homo sapiens; MKN-1, KRAS (WT ampl)
In short: as §1

SW 948 = settings: Homo sapiens, SW948
In short: as §1

KLE = settings: Homo sapiens, KRAS (WT ampl)
In short: as §1

HCT-8 = settings: Homo sapiens
In short: as §1

Mino = settings: Homo sapiens
In short: as §1

HT-1197 = settings: Homo sapiens, HT1197
In short: as §1

KP-2 = settings: Homo sapiens
In short: as §1

SW620 = settings: Homo sapiens, SW-620; SW620, KRAS (G12V)
In short: as §1

SKM-1 = settings: Homo sapiens
In short: as §1

OCI-Ly19 = settings: Homo sapiens
In short: as §1

CHL1 = settings: Homo sapiens, CHL-1; CHL1, KRAS (WT ampl)
In short: as §1

DV-90 = settings: Homo sapiens
In short: as §1

NCI-H2444 = settings: Homo sapiens; NCI-H2444, KRAS (G12V)
In short: as §1

PSN-1 = settings: Homo sapiens, PSN1
In short: as §1

HT1080 = settings: Homo sapiens, HT-1080
In short: as §1

NCI-H1355 = settings: Homo sapiens
In short: as §1

Panc 02.03 = settings: Homo sapiens; Panc 02.03, KRAS (G12D)
In short: as §1

NCI-H441 = settings: Homo sapiens; NCI-H441, KRAS (G12V)
In short: as §1

RKN = settings: Homo sapiens, KRAS (G12V)
In short: as §1

HAL-01 = settings: Homo sapiens
In short: as §1

NCI-H2030 = settings: Homo sapiens; NCI-H2030, KRAS (G12C)
In short: as §1

NCI-H650 = settings: Homo sapiens
In short: as §1

SUM 159PT = settings: Homo sapiens, HRAS (p.G12D)
In short: as §1

NCI-H2122 = settings: Homo sapiens; NCI-H2122, KRAS (G12C)
In short: as §1

GA-10 = settings: Homo sapiens; GA-10, NRAS (p.G12V)
In short: as §1

RERF-LC-Ad1 = settings: Homo sapiens
In short: as §1

For `CO[C@@H](C)c1ncc(N2CCN(C)CC2)cc1-c1c2c3cc(cc4c3n1CCC4)-c1csc(n1)C[C@H](NC(=O)[C@H]1[C@H](C)[C@@H]1C)C(=O)N1CCC[C@H](N1)C(=O)OCC(C)(C)C2` (atropisomer, axis not shown; (M)) [Example 24, (1r,2R,3S)-N-[(7S,13S)-(20M)-20-[2-[(1S)-1-methoxyethyl]-5-(4-methylpiperazin-1-yl)-3-pyridyl]-17,17-dimethyl-8,14-dioxo-15-oxa-4-thia-9,21,30,31-tetrazahexacyclo[23.3.1.1^2,5.1^9,13.0^19,27.0^21,26]hentriaconta-1 (28),2,5 (31), 19,25 (29),26-hexaen-7-yl]-2,3-dimethyl-cyclopropanecarboxamide], the IC50 (SW1271; SW1271, NRAS (p.Q61R), read-out: IC50) was 1.7 nM, the IC50 (NCI-H929; NCI-H929, NRAS (p.G13D), read-out: IC50) was 7.3 nM and the IC50 (MKN-1) was 28 nM. It also gave an IC50 (SW 948; SW 948, KRAS (Q61L), read-out: IC50) of 2.9 nM, an IC50 (KLE) of 100 nM and an IC50 (HCT-8; HCT-8, KRAS (G13D), read-out: IC50) of 80 nM. It also gave an IC50 (Mino; Mino, NRAS (p.G13D), read-out: IC50) of 3.8 nM, an IC50 (HT-1197; HT-1197, NRAS (p.Q61R), read-out: IC50) of 1.4 nM and an IC50 (KP-2; KP-2, KRAS (G12R), read-out: IC50) of 0.35 nM. The IC50 (SW620) was 0.1 nM, the IC50 (SKM-1; SKM-1, KRAS (K117N), read-out: IC50) was 0.93 nM and the IC50 (OCI-Ly19; OCI-Ly19, NRAS (p.Q61K), read-out: IC50) was 1.9 nM. For the same compound, the IC50 (CHL1) was 8.1 nM, the IC50 (DV-90; DV-90, KRAS (G13D), read-out: IC50) was 3.9 nM and the IC50 (NCI-H2444) was 0.17 nM. The IC50 (PSN-1; PSN-1, KRAS (G12R), read-out: IC50) was 0.85 nM, the IC50 (HT1080; HT1080, NRAS (p.Q61K), read-out: IC50) was 0.36 nM and the IC50 (NCI-H1355; NCI-H1355, KRAS (G13C), read-out: IC50) was 22 nM. It also gave an IC50 (Panc 02.03) of 3.2 nM, an IC50 (NCI-H441) of 0.25 nM and an IC50 (RKN) of 0.045 nM. It also gave an IC50 (HAL-01; HAL-01, NRAS (p.G12S), read-out: IC50) of 13 nM, an IC50 (NCI-H2030) of 0.34 nM and an IC50 (NCI-H650) of 2.3 nM. For the same compound, the IC50 (SUM 159PT) was 4.5 nM, the IC50 (NCI-H2122) was 0.39 nM and the IC50 (GA-10) was 1000 nM. The IC50 (RERF-LC-Ad1; RERF-LC-Ad1, KRAS (G12A), read-out: IC50) was 0.3 nM.
`CCn1c(-c2cc(N3CCN(C)CC3)cnc2[C@H](C)OC)c2c3cc(ccc31)-c1csc(n1)C[C@H](NC(=O)[C@H]1C[C@@H]1C)C(=O)N1CCC[C@H](N1)C(=O)OCC(C)(C)O2` [Example A122, reference compound] was tested, and the IC50 (SW1271; SW1271) was 3 nM, the IC50 (NCI-H929; NCI-H929) was 8.7 nM and the IC50 (MKN-1) was 40 nM. The IC50 (SW 948) was 8.5 nM, the IC50 (KLE) was 100 nM and the IC50 (HCT-8; HCT-8) was 69 nM. For the same compound, the IC50 (Mino; MINO) was 1000 nM, the IC50 (HT-1197) was 2.5 nM and the IC50 (KP-2) was 0.43 nM. The IC50 (SW620) was 0.23 nM, the IC50 (SKM-1; SKM-1) was 1.3 nM and the IC50 (OCI-Ly19; OCI-LY19) was 2.4 nM. For the same compound, the IC50 (CHL1) was 9.3 nM, the IC50 (DV-90; DV-90) was 4.7 nM and the IC50 (NCI-H2444) was 0.29 nM. The IC50 (PSN-1) was 1.2 nM, the IC50 (HT1080) was 0.49 nM and the IC50 (NCI-H1355; NCI-H1355) was 33 nM. The IC50 (Panc 02.03) was 5.2 nM, the IC50 (NCI-H441) was 0.49 nM and the IC50 (RKN) was 0.066 nM. It also gave an IC50 (HAL-01; HAL-01) of 14 nM, an IC50 (NCI-H2030) of 0.56 nM and an IC50 (NCI-H650) of 9.6 nM. It also gave an IC50 (SUM 159PT) of 3 nM, an IC50 (NCI-H2122) of 0.62 nM and an IC50 (GA-10) of 1000 nM. The IC50 (RERF-LC-Ad1) was 0.22 nM.
